Article PMC10648349, “Aromatic Diboronic Acids as Effective KPC/AmpC Inhibitors” (Molecules, 2023)
In brackets after ≈: the same amount, converted by molar mass.

Assays:
[1] = system: C. krusei ATCC 6258; assay: antifungal activity (disc-diffusion, MIC, MFC); assay type: cell-based, Candida krusei; conditions: Pichia kudriavzevii, ATCC6258
How it was run: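 EUCAST/CLSI methods: disc diffusion at 0.4 mg compound/disc, broth MIC, then MBC (bacteria) or MFC (yeast). DMSO vehicle.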

[2] = system: Gram-negative rods (except P. aeruginosa); assay: direct antimicrobial activity, MIC; assay type: cell-based
Protocol: Direct antimicrobial activity against Gram-negative and Gram-positive bacterial strains, as well as against yeast, was examined as previously described by the disc-diffusion test, the MIC determination assay, the MBC (for bacteria), and the MFC (for yeasts) determination tests. All the above-mentioned tests were performed according to EUCAST [71, 72] and CLSI [73, 74, 75, 76, 77] recommendations. The following reference agents were used: nitrofurantoin (for Gram-negative rods), linezolid (for Gram-positive bacteria), and fluconazole (in the case of fungi). The new aromatic diboronic acids were dissolved in DMSO (Sigma, St. Louis, MO, USA). In the disc-diffusion test, the concentration of new agents was 0.4 mg per disc.

[3] = system: E. coli 77 CMY-2(+); assay: screening test of direct antimicrobial activity (STDA), disc-diffusion; assay type: cell-based; conditions: Escherichia coli, - no zone, read-out: Diameter of inhibition zone around disc with tested agent
Protocol: (§1) Prior to combination disc tests, screening tests of direct antimicrobial activity (STDA) of the tested agent against β-lactamase-producing strains were performed by the disc-diffusion method. Discs with 0.3 mg, 0.1 mg, and 0.03 mg of each agent were examined. The highest amount of an agent that caused no effect on bacterial growth was used in further experiments.

[4] = system: K. pneumoniae ATCC 700603 ESBL(+); assay: as above; assay type: cell-based; conditions: Klebsiella pneumoniae, ATCC700603, - no zone, read-out: Diameter of inhibition zone around disc with tested agent
Protocol: as §1

[5] = system: K. pneumoniae ATCC BAA 1705 KPC(+); assay: as above; assay type: cell-based; conditions: Klebsiella pneumoniae, BAA1705, - no zone, read-out: Diameter of inhibition zone around disc with tested agent
Protocol: as §1

[6] = system: P. aeruginosa MUW 700 AmpC(+); assay: as above; assay type: cell-based; conditions: Pseudomonas aeruginosa, - no zone, read-out: Diameter of inhibition zone around disc with tested agent
Protocol: as §1

[7] = system: K. pneumoniae ATCC 700603 ESBL-positive; assay: combination disc test CDT-ESBL; assay type: cell-based; conditions: Klebsiella pneumoniae, ATCC700603; agent 0.03 mg per disc; read-out: Diameter of inhibition zone, CAZ-30 disc with agent
[8] = system: E. coli 76 KPC-2-positive; assay: checkerboard microdilution, antibiotic plus tested agent; assay type: cell-based, Escherichia coli
How it was run: (§2)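 Read-out is the antibiotic MIC with agent present, plus FICI = combined/alone MIC ratios summed for both partners. Meropenem pairs served for carbapenemase strains and ceftazidime pairs for the AmpC strain. Agent or PBA was tested at 4–16 mg/L.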

[9] = system: E. coli 77 CMY-2-positive; assay: as above; assay type: cell-based, Escherichia coli
How it was run: as §2

[10] = system: K. pneumoniae 81 KPC-3-positive; assay: as above; assay type: cell-based, Klebsiella pneumoniae
How it was run: as §2

[11] = system: K. pneumoniae 83 KPC-3-positive, CTX-M-3-positive; assay: as above; assay type: cell-based, Klebsiella pneumoniae
How it was run: as §2

[12] = system: K. pneumoniae ATCC BAA-1705 KPC-2-positive; assay: as above; assay type: cell-based, Klebsiella pneumoniae
How it was run: as §2

[13] = MTT-based viability assay; assay type: cell-based; conditions: human
How it was run: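 Percent viable cells relative to control, measured in triplicate by MTT read-out at 570 nm. Cells: MRC-5 human fibroblasts cultured at 37 °C, 5% CO2 in MEME plus 10% FBS.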

SMILES: OB(O)c1cc(F)ccc1F [7a, 2,5-difluorophenylboronic acid]
- zone of inhibition at 0.4 mg/disc ([1]; 0.4 mg per disc, 9 mm disc (fluconazole 0.025 mg, 6 mm disc), - no zone, read-out: Diameter of inhibition zone): 15 mm
- MIC ([1]; fluconazole by Etest): 50 µg/mL (≈ 317 µM)
- MIC [2]: 50 to 400 µg/mL (≈ 317 to 2530 µM)
- zone of inhibition at 100 µg/disc ([3]; 0.1 mg per disc): 13 mm
- zone of inhibition at 300 µg/disc ([3]; 0.3 mg per disc): 18 mm
- zone of inhibition at 100 µg/disc ([4]; 0.1 mg per disc): 18 mm
- zone of inhibition at 300 µg/disc ([4]; 0.3 mg per disc): 18 mm
- zone of inhibition at 100 µg/disc ([5]; 0.1 mg per disc): 12 mm
- zone of inhibition at 300 µg/disc ([5]; 0.3 mg per disc): 17 mm
- zone of inhibition at 100 µg/disc ([6]; 0.1 mg per disc): 11 mm
- zone of inhibition at 300 µg/disc ([6]; 0.3 mg per disc): 12 mm
- zone of inhibition at 30 µg/disc [7]: 15 mm
- Average FICI with ERT [8]: 0.51
- Average FICI with IMI [8]: 0.30
- Average FICI with MEM [8]: 0.51
- The lowest FICI with ERT [8]: 0.41
- The lowest FICI with IMI [8]: 0.29
- The lowest FICI with MEM [8]: 0.41
- Average FICI with ceftazidime [9]: 0.17
- The lowest FICI with ceftazidime [9]: 0.14
- Average FICI with ERT [10]: 0.46
- Average FICI with IMI [10]: 0.21
- Average FICI with MEM [10]: 0.23
- The lowest FICI with ERT [10]: 0.33
- The lowest FICI with IMI [10]: 0.17
- The lowest FICI with MEM [10]: 0.14
- Average FICI with ERT [11]: 0.51
- Average FICI with IMI [11]: 0.30
- Average FICI with MEM [11]: 0.47
- The lowest FICI with ERT [11]: 0.41
- The lowest FICI with IMI [11]: 0.29
- The lowest FICI with MEM [11]: 0.29
- Average FICI with ERT [12]: 0.76
- Average FICI with IMI [12]: 0.43
- Average FICI with MEM [12]: 0.51
- The lowest FICI with ERT [12]: 0.58
- The lowest FICI with IMI [12]: 0.33
- The lowest FICI with MEM [12]: 0.41
- viability at 72 h, 12.5 mg/L [13]: 83 ± 2.9%
- viability at 72 h, 25 mg/L [13]: 79.9 ± 3.7%
- viability at 72 h, 50 mg/L [13]: 67.3 ± 3.1%
